# In US20110104290A1, “COMPOSITIONS FOR REDUCING BLOOD GLUCOSE LEVEL AND USES THEREOF” (priority 2008, published 2011):
# System: STZ-induced hyperglycemic rats
# Experiment: Anti-hyperglycemic effect in STZ-induced hyperglycemic rats (serum blood glucose level)
# Assay type: in vivo, Sprague-Dawley (SD) rats
# Protocol: For the purpose of the present invention, the dietary supplement prepared in accordance with Example 1 is named Composition 1. Composition 1 is an herbal supplement used for control of blood glucose level. The purpose of this study was to assess the anti-hyperglycemic effect of Composition 1 tablet in STZ-induced hyperglycemic rats.
# Sprague-Dawley (SD) rats weighing 230˜270 g were used to establish the hyperglycemic rat model. Animals were fasted for 18 hours before receiving a single intraperitoneal injection of 2% STZ at a dose of 40 mg/kg BW (2.0 ml/kg). Six SD rats were selected as the Blank Control Group and injected intraperitoneally with citric acid buffer at a dose of 2.0 ml/kg BW. All rats had free access to food and water after the injection. Blood samples were collected from rats' posterior orbits veins at 72 hours after the injection for determination of the blood glucose level. Successful establishment of hyperglycemic rat model was defined as a non-fasting venous blood glucose level≧13.8 mmol/L. […]
# The clinical dose of Metformin for human is 1˜1.5 g/day, which is about 0.025 g/kg body weight/day for an adult. The administration dose of Metformin for rat was calculated to be 0.25 g/kg body weight/day, 10 times of human clinical dose. […]
smiles,measurement,setting,value
CN(C)C(=N)N=C(N)N [Metformin],blood glucose levels compared to the Model Control Group,"Metformin Control Group 0.25 g/kg/day, 3rd and 4th weeks after the beginning of administration, p<0.05",lower
same,decrease of end-point blood glucose level compared to level prior to the treatment,"Metformin Control Group, 0.25 g/kg/day i.g., after the 4-week treatment",59%
